Test results taken from patent US20100255580A1, “Differentiation of Human Embryonic Stem Cells” (LIFESCCAN, INC., priority 2007, published 2010).

Assays:
[1] = tested on: human embryonic stem cell line H1; assay: Real-time PCR of definitive endoderm markers, H1 on human serum or […] (Examples 30, 31, 35); assay type: cell-based; settings: for expression of definitive endoderm markers: H1 passage 55 on human serum coated plates, with activin A, vs activin A only
Experimental: Cultures of the human embryonic stem cell line H1 at passage 55 were grown and differentiated on human serum (Sigma, #H1388, MO) coated plates. 0.5 ml of human serum was added to each well of 6 well tissue culture treated dish, incubated for 1 hr at room temperature, and aspirated before adding human embryonic stem cells. After cells reached 80% confluency, they were treated as follows: 2 days 0.5% FBS containing 10 ng/ml mouse recombinant Wnt3a (R&D) or 100 nM GSK-3B inhibitor IX (Catalog #361550, Calbiochem, CA) and 100 ng/mlActivin A (R&D). This was followed by 3 days 2% FBS plus 100 ng/mlActivin A. Cultures were then analyzed by real-time PCR (FIG. 46, panels a & b). […] These findings parallel our findings for human embryonic stem cells cultured on […]™ or human fibronectin coated plates.
The effectiveness of a number of commercially available GSK-3B inhibitors was evaluated in formation of DE from human embryonic stem cells. The following GSK-3B inhibitors were evaluated at 100 nM: GSK-3B inhibitor VIII (Catalog #361549, Calbiochem, CA), GSK-3B inhibitor IX (Catalog #361550, Calbiochem, CA), GSK-3B inhibitor XI (Catalog #361553, Calbiochem, CA), GSK-3B inhibitor XII (Catalog #361554, Calbiochem, CA). […] Control cultures were treated with low serum plus high dose of AA. FIG. 47, panels a and b depicts the gene expression of definitive endoderm markers at day 5. GSK-3B inhibitor IX and XI were both effective in inducing DE formation as compared to GSK-3B inhibitor VIII and XII.
The following combinations of WNT1+AA were tested:
a) 20 ng/ml of WNT1+100 ng/ml AA in 0.5% FBS+DM-F12 for days 1-2 followed by 2% FBS+DM-F12+100 ng/ml AA for day three, b) 20 ng/ml of WNT1+100 ng/ml AA in 0.5% FBS+DM-F12 for days 1-2 followed by 2% FBS+DM-F12+100 ng/ml AA for days 3-5, c) 10 ng/ml of WNT1+100 ng/ml AA in 0.5% FBS+DM-F12 for days 1-2 followed by 2% FBS+DM-F12+100 ng/ml AA for day three, d) 10 ng/ml of WNT1+100 ng/ml AA in 0.5% FBS+DM-F12 for days 1-2 followed by 2% FBS+DM-F12+100 ng/ml AA for days 3-5, e) 20 ng/ml of WNT1+100 ng/ml AA in 0.5% FBS+DM-F12 for days 1-2 followed by 2% FBS+DM-F12+100 ng/ml AA+20 ng/ml of WNT1 for day three, f) 20 ng/ml of WNT1+100 ng/ml AA in 0.5% FBS+DM-F12 for days 1-2 followed by 2% FBS+DM-F12+100 ng/ml AA+20 ng/ml of WNT1 for days 3-5.

[2] = tested on: human embryonic stem cell line H9; assay: FACS of CXCR4 and CD9, H9 maintained on […] and differentiated on MEFs (Example 25); assay type: cell-based; settings: for CXCR4 positive cells (FACS): without (label Activin A) or with Wnt3a
Experimental: Adhered cells were removed from culture plates by five-minute incubation with TrypLE™ Express solution (Invitrogen, CA). Released cells were resuspended in human embryonic stem cell culture medium and recovered by centrifugation, followed by washing and resuspending the cells in a staining buffer consisting of 2% BSA, 0.05% sodium azide in PBS (Sigma, MO). As appropriate, the cells were Fc-receptor blocked for 15 minutes using a 0.1% γ-globulin (Sigma) solution. […] Controls included appropriate isotype matched antibodies, unstained cells, and cells stained only with secondary conjugated antibody. All incubations with antibodies were performed for 30 mins at 4° C. after which the cells were washed with the staining buffer. Samples that were stained with unconjugated primary antibodies were incubated for an additional 30 mins at 4° C. with secondary conjugated PE or -APC labeled antibodies. See Table I for a list of secondary antibodies used. Washed cells were pelleted and resuspended in the staining buffer, and the cell surface molecules were identified using a FACS Array (BD Biosciences) instrument, collecting at least 10,000 events.
Cells from the human embryonic stem cell line H9 cultured on […]™ for at least five passages were seeded onto MEF feeders in ES media.
At day 3 and 5, the cultures were analyzed by real time PCR for SOX-17, SOX-7, Alpha-fetal protein (AFP), CXCR4, Brychyury (Bry), gooscecoid (GSC), HNF-3 beta, GATA4, hTERT and Oct4. AFP and SOX-7 are regarded as visceral endoderm markers while GATA4, HNF-3beta and SOX-17 represent definite endoderm markers and GSC, Bry, and CXCR4 represent markers of primitive streak. hTERT and Oct-4 are markers for self renewal and pluripotency respectively. FACS analysis was also performed at day 3 and 5.

[3] = day 3, high concentration of Activin A
[4] = day 5, high concentration of activin A

Compound	inducing DE formation ([1]; H1P54 on MATRIGEL, 100 nM for first two days, compared to GSK-3B inhibitor VIII and XII)	expression of definitive endoderm markers [1]	role in differentiation of human embryonic stem cells, cultured on MEFs, to definitive endoderm [2]	CXCR4 positive cells (FACS) [2, 3]	CXCR4 positive cells (FACS) [2, 4]
O=C1Nc2cc(Br)ccc2/C1=C1/Nc2ccccc2/C1=N\O [GSK-3B inhibitor IX, reference compound]	effective	Robust expression			
Wnt-3a		Robust expression	does not appear to play a significant role	23-33%	43-51%
Activin A: a member of the TGFβ superfamily; R&D Systems; Group 2 = Activin A (100 ng/ml)				32-42%	28-32%
